# In US20170129915A1, “THERAPEUTIC AGENT FOR DISEASES ASSOCIATED WITH NERVE AXON DYSFUNCTION, INCLUDING THERAPEUTIC AGENT FOR ALZHEIMER'S DISEASE” (Resilio Company Limited, priority 2014, published 2017):
# What was measured:
# normal mice (ddY) [1] = assay: Object recognition memory test in normal mice; type: in vivo; settings: Example 12: suspension in sesame oil, oral, 0.1 μmol/kg·day, 4 days; ddY male and female 9 weeks; interval 48 hours; FIG. 10
# Protocol: […] All mice were housed with free access to food and water and were kept in a controlled environment at 22±2° C., 50±5% humidity, and 12-h light/dark cycle starting at 7:00 am.
# The next day of the measurement of spontaneous motor activity, an object recognition memory test was performed as described in Joyashiki, E. et al., Int J Neurosci, 121, 181-190, 2011 and Tohda, C. et al., Int J Neurosci, 121, 641-648, 2011, reported by the inventors and others. Testing was carried out in a dimly illuminated room (about 100 lx). An appropriate time interval between a training session and a test session was set based on the results of a preliminary test using another group of mice. The object recognition memory test utilizes animals' habit of showing interest in a novel object. The inner walls of the open-field box for the test had no marks. In the training session, two identical objects were placed in the field, and mice were allowed to explore freely for 10 minutes. In the test session, the location of the objects was not changed, but one of the objects was replaced with a novel object, and the mice were allowed to explore freely for 10 minutes. […] In the Examples below, the ratio (%) of the number of times a mouse explored the novel object to the total exploration time was calculated as a preference index. […]
# normal mice (ddY) [2] = assay: Object location memory test in normal mice (Reference Test 2); type: in vivo; settings: 10 μmol/kg·day, 5 days, ddY male 6 weeks, interval 48 hours
# Protocol: ddY Mice were obtained from Japan SLC (Hamamatsu, Japan) In the Examples below, 6-week-old male ddY mice were used as normal mice. All mice were housed with free access to food and water and were kept in a controlled environment at 22±2° C., 50±5% humidity, and 12-h light/dark cycle starting at 7:00 am.
# Testing was carried out in a dimly illuminated room (about 100 lx). An appropriate time interval between a training session and a test session was set based on the results of a preliminary test using another group of mice. The object location memory test utilizes animals' habit of showing interest in a novel object. The two opposite walls of a four-walled open-field box for the test had wall coverings with a distinct pattern. […] In the test session, one of the objects was moved to a different location, and the mice were allowed to explore freely for 10 minutes. The increase of the number of times a mouse preferentially explored the identical but relocated object was used as an index of the location memory. That is, the test session determines whether a mouse remembers the previous exposure to an object in the training session. In the Examples below, the ratio (%) of the number of times a mouse explored the object after relocation to the total exploration time was calculated as a preference index. […]
# normal or AD model mice = settings: intraperitoneal administration; cited from earlier work
# [3] = tested on: spinal cord injury (SCI) model mice; assay: Evaluation of hindlimb motor function based on BMS and TMS; type: in vivo; settings: suspension in sesame oil, oral once a day, 0.1 μmol/kg·day, 14 days, vs sesame oil alone, FIGS. 4A and 4B
# Protocol: Contusion injury was induced in 8-week-old female ddY mice (SLC) by the following procedure to give spinal cord injury (SCI) model mice. The ddY mice were maintained with free access to food and water in a controlled environment (22±2° C., 50±5% humidity, 12-h light/dark cycle starting at 7:00 am) Contusion injury was induced by exposing the lumbar vertebrae of each mouse in accordance with a conventional procedure, then placing the mouse in a stereotaxic apparatus (Narishige), and dropping a 6.5-g weight onto the first lumbar vertebrae (L1) from a height of 2 cm once. The mouse was then subjected to surgical procedures such as suture in a conventional manner. One hour after the induction of the contusion injury, the mice were randomly selected and divided into test groups and were subjected to the administration test described later in Example 10 and Comparative Example 5.
# The locomotion behavior in the open field was evaluated using the Basso Mouse Scale (BMS) (see, for example, Engesser-Cesar C, Anderson A J, Basso D M et al., (2005), Voluntary wheel running improves recovery from a moderate spinal cord injury, J Neurotrauma 22: 157-171), which was a general standard for the evaluation of the hindlimb motor function of spinal cord injury model mice, and a 0-30-point Toyama Mouse Scale (TMS), which was a modified BMS established by the inventors for better test accuracy. […]
Compound,object recognition memory (normal mice (ddY) [1]),"memory enhancing effect, object location memory test (normal mice (ddY) [2]; Reference Example 1: dissolved in aqueous solvent (ethanol/5% glucose), oral, FIG. 6A)","memory enhancing effect, object location memory test (normal mice (ddY) [2]; Reference Example 2: dissolved in aqueous solvent, intraperitoneal, FIG. 6B)",memory (normal or AD model mice),hindlimb motor function (BMS and TMS scores) [3]
"C[C@@H]1CC[C@@]2(OC1)O[C@H]1C[C@H]3[C@@H]4CC=C5C[C@@H](O)CC[C@]5(C)[C@H]4CC[C@]3(C)[C@H]1[C@@H]2C [diosgenin, Diosgenin]",a significant enhancement of the object recognition memory,no memory enhancing effect,a significant memory enhancing effect,enhanced the memory,
"C[C@@H]1CC[C@@]2(OC1)O[C@H]1C[C@H]3[C@@H]4CC=C5C[C@@H](F)CC[C@]5(C)[C@H]4CC[C@]3(C)[C@H]1[C@@H]2C [Dios-F, (3β,25R)-3-fluorospirost-5-ene]",,,,,significantly improved
